# Test results taken from patent publication US12233073B2, “Skin care formulations and skin cancer treatment” (Regents of the University of Minnesota, priority 2017, dated 2025).
# Where two headings read alike, the source gives them in different places.
# Experiments:
# [1] = test system: nuclear factor kappa B (NF-κB) pathway; test: Cell-based assay of the nuclear factor kappa B (NF-κB) pathway; details: for inhibition at 10 µg/mL / inhibition at 50 µg/mL / inhibition at 100 µg/mL: read-out: % inhibition of NF-κB; for Rating (inhibition of NF-κB): one rating per compound
# Procedure: The effect of adding anti-aging and/or anti-wrinkling compounds to the skin care formulation of EXAMPLE 18 on nuclear factor kappa B (NF-κB) mediated-inflammation was evaluated.
# A cell-based assay was performed to determine the effective of each of these compounds. The assay involved the effect of each compound on the nuclear factor kappa B (NF-κB) pathway. The inhibition of NF-κB is indicative of a protective effect against aging and wrinkling.
# UV-induced ROS = test: Inhibition of the production of UV-induced reactive oxygen species (ROS); assay type: cell-based; details: for inhibition at 10 µg/mL: read-out: % inhibition of UV-induced ROS
# Procedure: The effect of the compounds of EXAMPLE 20 on inhibition of the production of reactive oxygen species (ROS), which can damage skin cells, was evaluated.
# [2] = test system: antioxidant response element (ARE) pathway; test: Activation of the antioxidant response element (ARE) pathway; assay type: cell-based; details: for Rating (ARE): third rating in cell
# Procedure: (§1) Higher elastin and collagen activity is indicative of anti-wrinkling or anti-aging effects. Activation of the antioxidant response element (ARE) pathway was also evaluated. The NF-E2-related factor (Nrf2) is a critical transcription factor in oxidative stress signaling. Nrf2 binds to the ARE and serves as a master regulator in cellular defense pathways. The ARE pathway mediates the transcriptional induction of a battery of genes that help to protect the cells against oxidative damage. Activation of the ARE promoter leads to more endogenous antioxidants and cell detoxification.
# collagen 1A = test: Induction of collagen 1A; assay type: cell-based; details: for Rating (Collagen 1A): second rating in cell
# Procedure: as §1
# elastin = test: Induction of elastin; assay type: cell-based; details: for Rating (Elastin): first rating in cell
# Procedure: as §1
Compound,inhibition at 100 µg/mL [1],inhibition at 10 µg/mL (UV-induced ROS; final dose 10 μg/ml),fold induction at 10 µg/mL ([2]; final dose 10 μg/ml),fold induction at 50 µg/mL ([2]; final dose 50 μg/ml),fold induction at 100 µg/mL ([2]; final dose 100 μg/ml),Rating (ARE) [2],fold induction at 10 µg/mL (collagen 1A; final dose 10 μg/ml),fold induction at 50 µg/mL (collagen 1A; final dose 50 μg/ml),fold induction at 100 µg/mL (collagen 1A; final dose 100 μg/ml),Rating (Collagen 1A) (collagen 1A),fold induction at 10 µg/mL (elastin; final dose 10 μg/ml),fold induction at 50 µg/mL (elastin; final dose 50 μg/ml),fold induction at 100 µg/mL (elastin; final dose 100 μg/ml),inhibition at 50 µg/mL ([1]; final dose 50 μg/ml),inhibition at 100 µg/mL ([1]; final dose 100 μg/ml),Rating (inhibition of NF-κB) [1],% inhibition of NF-κB ([1]; final dose 10 μg/ml),% inhibition of NF-κB ([1]; final dose 50 μg/ml),Rating (Elastin) (elastin),further results
"COc1cc(-c2oc3cc(O)cc(O)c3c(=O)c2O)ccc1O [HI-10, isorhamnetin]",43%,~50%,2,< 1.3,< 1.3,**** (very high activity (>76%)),1.4,< 1.3,< 1.3,** (medium activity (31-55%)),1.7,1.8,4,–,–,–,–,–,–,inhibition at 10 µg/mL [1]: 45%; inhibition at 50 µg/mL [1]: 52%
"O=c1cc(-c2ccc(O)c(O)c2)oc2cc(O)cc(O)c12 [HI-11, luteolin]",–,> 70%,1.5,5,2,"****, ****, **** (very high activity (>76%))",2,< 1.3,< 1.3,"****, ****, **** (very high activity (>76%))",1.8,< 1.3,< 1.3,> 90%,> 90%,** (medium activity (31-55%)),–,–,–,inhibition at 10 µg/mL ([1]; final dose 10 μg/ml): 54%
"O=c1c(O)c(-c2cc(O)c(O)c(O)c2)oc2cc(O)cc(O)c12 [HI-8, myricetin]",–,> 70%,< 1.3,< 1.3,< 1.3,none,< 1.3,< 1.3,< 1.3,none,< 1.3,3,2.8,39%,44%,none,none,–,–,–
"O=c1c(O)c(-c2ccc(O)cc2)oc2cc(O)ccc12 [HI-7, 3,7,4′-trihydroxyflavone]",–,~50%,2,1.5,< 1.3,"****, ****, **** (very high activity (>76%))",3,< 1.3,< 1.3,"****, ****, **** (very high activity (>76%))",3,2,< 1.3,52%,66%,none,–,–,–,inhibition at 10 µg/mL ([1]; final dose 10 μg/ml): 9%
"Oc1cc(O)c2cc(O)c(-c3cc(O)c(O)c(O)c3)[o+]c2c1 [HI-2, delphiniden]",–,–,–,–,–,none,–,–,–,none,–,–,–,–,–,none,none,none,none,% inhibition of NF-κB ([1]; final dose 100 μg/ml): none; % inhibition of UV-induced ROS (UV-induced ROS; final dose 10 μg/ml): >70%; ARE activation ([2]; final dose 10 μg/ml): — (The dash (—) indicates <1.3x or no induction); ARE activation ([2]; final dose 50 μg/ml): — (The dash (—) indicates <1.3x or no induction); ARE activation ([2]; final dose 100 μg/ml): 1.7x; Collagen 1A induction (collagen 1A; final dose 10 μg/ml): — (The dash (—) indicates <1.3x or no induction); Collagen 1A induction (collagen 1A; final dose 50 μg/ml): — (The dash (—) indicates <1.3x or no induction); Collagen 1A induction (collagen 1A; final dose 100 μg/ml): — (The dash (—) indicates <1.3x or no induction); Elastin induction (elastin; final dose 10 μg/ml): 1.5x; Elastin induction (elastin; final dose 50 μg/ml): — (The dash (—) indicates <1.3x or no induction); Elastin induction (elastin; final dose 100 μg/ml): — (The dash (—) indicates <1.3x or no induction)
"C=CCc1ccc(O)c(-c2cc(CC=C)ccc2O)c1 [HI-3, magnolol]",> 90%,–,< 1.3,< 1.3,< 1.3,none,< 1.3,< 1.3,< 1.3,none,< 1.3,4,2.8,–,–,**** (very high activity (>76%)),–,–,none,Cytotoxicity remark in Rating column ([1]; NF-κB cell-based assay): slightly cytotoxic; inhibition at 10 µg/mL [1]: > 90%; inhibition at 50 µg/mL [1]: > 90%; inhibition at 10 µg/mL (UV-induced ROS): ~10%
"O=c1c(O)c(-c2ccc(O)cc2)oc2c(O)c(O)cc(O)c12 [HI-12, herbacetin]",–,~50%,< 1.3,< 1.3,< 1.3,none,< 1.3,< 1.3,< 1.3,none,2,< 1.3,2,–,49%,none,none,none,–,–
"O=C1C[C@@H](c2ccc(O)cc2)Oc2cc(O)cc(O)c21 [HI-5, naringenin]",–,~25%,2,2,2,**** (very high activity (>76%)),< 1.3,< 1.3,1.3,* (low activity (20-30%)),1.5,< 1.3,1.5,56%,62%,none,none,–,–,–
"O=c1c(-c2ccc(O)cc2)coc2cc(O)c(O)cc12 [HI-4, 6,7,4′-trihydroxyisoflavone]",–,> 70%,2,< 1.3,< 1.3,"****, ****, **** (very high activity (>76%))",2,< 1.3,< 1.3,"****, ****, **** (very high activity (>76%))",2,2,< 1.3,–,–,none,none,none,–,% inhibition of NF-κB ([1]; final dose 100 μg/ml): none
"O=c1c(-c2ccc(O)c(O)c2)coc2cc(O)ccc12 [HI-1, 7,3,4′-trihydroxyisoflavone]",–,> 70%,< 1.3,3,5,–,1.5,3,< 1.3,"**, **, N/A (medium activity (31-55%))",1.5,2,< 1.3,14%,40%,none,none,–,–,–
"O=c1c(O)c(-c2ccc(O)c(O)c2)oc2cc(O)c(O)c(O)c12 [HI-9, quercetagetin]",20%,–,–,–,–,none,–,–,–,*** (high activity (56-75%)),–,–,–,–,–,none and ** (medium activity (31-55%)),none,none,none,inhibition at 10 µg/mL (UV-induced ROS): > 70%
"O=C(/C=C/c1ccc(O)c(O)c1)OCCc1ccccc1 [HI-6, caffeic acid phenylethyl ester]",> 90%,–,< 1.3,< 1.3,< 1.3,–,< 1.3,< 1.3,< 1.3,"none, none, N/A",< 1.3,< 1.3,2,–,–,*** (high activity (56-75%)),–,–,"none, none, N/A",inhibition at 10 µg/mL [1]: 64%; inhibition at 50 µg/mL [1]: > 90%; inhibition at 10 µg/mL (UV-induced ROS): > 70%
